Values of other authors as cited in patent publication US11472859B2, “Method and composition for treating neuronal hyper-excitabtiity” (The Regents of the University of California, priority 2016, dated 2022).
Entries after “also recorded” stand apart in the source; their conditions may differ.

What was measured:
spasticity = conditions: for anti-spasticity effect: systemic or spinal administration, clinical (and experimental animal) studies
[1] = test system: brain or spinal parenchymal GABA release; conditions: after systemic delivery

NCC(CC(=O)O)c1ccc(Cl)cc1 (stereo not shown) [baclofen]
side effects (spasticity; clinical use, systemic or spinal): major side effects such as general sedation and progressive tolerance development; also recorded: unwanted systemic side effects such as sedation | anti-spasticity effect (spasticity): most potent anti-spasticity pharmacological treatment; also recorded: effective in modulating spasticity; also recorded: potent antispasticity effect

Cc1ccsc1C(=CCCN1CCC[C@@H](C(=O)O)C1)c1sccc1C [tiagabine]
anti-spasticity effect (spasticity): only a weak or no anti-spasticity effect | potentiation of brain or spinal parenchymal GABA release [1]: relatively modest potentiation
